The values below come from ChEMBL document CHEMBL1201862, “PubChem BioAssay data set” (2004).

Common to all, as to format: functional
Experiment [1] addresses T1, Sentrin-specific protease 8 (Homo sapiens, UniProt Q96LD8).
T1 sequence (Q96LD8 whole entry): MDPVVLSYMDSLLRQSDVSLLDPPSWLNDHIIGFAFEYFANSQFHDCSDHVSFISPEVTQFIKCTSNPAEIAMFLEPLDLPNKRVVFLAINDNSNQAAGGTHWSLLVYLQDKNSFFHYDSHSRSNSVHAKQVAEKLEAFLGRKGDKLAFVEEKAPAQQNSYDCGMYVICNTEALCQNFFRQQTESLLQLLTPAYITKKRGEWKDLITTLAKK

The target of the next experiment is Misshapen-like kinase 1 (Homo sapiens, UniProt Q8N4C8).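 Further: kinome panel screen with MINK as the panel member.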
Experiment [2] deals with Casein kinase I isoform alpha (Homo sapiens, UniProt P48729).
For experiment [3], the target named is Homeodomain-interacting protein kinase 4 (Homo sapiens, UniProt Q8NE63).
Experiment [4] has as its target Tyrosine-protein kinase Srms (Homo sapiens, UniProt Q9H3Y6).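 Further: SRMS measured as one member of a kinome-wide kinase profiling panel.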
Experiment [5] concerns the target Serine/threonine-protein kinase PLK4 (Homo sapiens, UniProt O00444).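 Further: PLK4 measured as one member of a kinome-wide kinase profiling panel.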
Experiment [6] deals with Tyrosine-protein kinase Blk (Homo sapiens, UniProt P51451).
Experiment [7] addresses Serine/threonine-protein kinase DCLK1 (Homo sapiens, UniProt O15075).
Experiment [8] addresses Protein kinase C gamma type (Homo sapiens, UniProt P05129).
Experiment [9] concerns the target MAP/microtubule affinity-regulating kinase 3 (Homo sapiens, UniProt P27448).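 Further: MARK3 affinity measured as one member of a kinome panel.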
The target of experiment [10] is Megakaryocyte-associated tyrosine-protein kinase (Homo sapiens, UniProt P42679).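 Further: affinity measured as one member of a kinase panel (Navigating the Kinome) against MATK.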
Experiment [11] addresses Receptor tyrosine-protein kinase erbB-2 (Homo sapiens, UniProt P04626). Put plainly: Navigating the Kinome. Panel member name: ERBB2.
In experiment [12] the target is Serine/threonine-protein kinase PAK 1 (Homo sapiens, UniProt Q13153).
Experiment [13] concerns the target Tyrosine-protein kinase Lyn (Homo sapiens, UniProt P07948).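 Further: lyn as one member of a kinase panel.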
Experiment [14] addresses MAP kinase-activated protein kinase 5 (Homo sapiens, UniProt Q8IW41).
For experiment [15], the target named is Ribosomal protein S6 kinase beta-1 (Homo sapiens, UniProt P23443).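 Further: measured as one member of a kinome-wide profiling panel.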
Experiment [16] addresses Interleukin-1 receptor-associated kinase 1 (Homo sapiens, UniProt P51617).
The target in experiment [17] is Serine/threonine-protein kinase N2 (Homo sapiens, UniProt Q16513).
Sequence of Serine/threonine-protein kinase N2 (Q16513 whole entry): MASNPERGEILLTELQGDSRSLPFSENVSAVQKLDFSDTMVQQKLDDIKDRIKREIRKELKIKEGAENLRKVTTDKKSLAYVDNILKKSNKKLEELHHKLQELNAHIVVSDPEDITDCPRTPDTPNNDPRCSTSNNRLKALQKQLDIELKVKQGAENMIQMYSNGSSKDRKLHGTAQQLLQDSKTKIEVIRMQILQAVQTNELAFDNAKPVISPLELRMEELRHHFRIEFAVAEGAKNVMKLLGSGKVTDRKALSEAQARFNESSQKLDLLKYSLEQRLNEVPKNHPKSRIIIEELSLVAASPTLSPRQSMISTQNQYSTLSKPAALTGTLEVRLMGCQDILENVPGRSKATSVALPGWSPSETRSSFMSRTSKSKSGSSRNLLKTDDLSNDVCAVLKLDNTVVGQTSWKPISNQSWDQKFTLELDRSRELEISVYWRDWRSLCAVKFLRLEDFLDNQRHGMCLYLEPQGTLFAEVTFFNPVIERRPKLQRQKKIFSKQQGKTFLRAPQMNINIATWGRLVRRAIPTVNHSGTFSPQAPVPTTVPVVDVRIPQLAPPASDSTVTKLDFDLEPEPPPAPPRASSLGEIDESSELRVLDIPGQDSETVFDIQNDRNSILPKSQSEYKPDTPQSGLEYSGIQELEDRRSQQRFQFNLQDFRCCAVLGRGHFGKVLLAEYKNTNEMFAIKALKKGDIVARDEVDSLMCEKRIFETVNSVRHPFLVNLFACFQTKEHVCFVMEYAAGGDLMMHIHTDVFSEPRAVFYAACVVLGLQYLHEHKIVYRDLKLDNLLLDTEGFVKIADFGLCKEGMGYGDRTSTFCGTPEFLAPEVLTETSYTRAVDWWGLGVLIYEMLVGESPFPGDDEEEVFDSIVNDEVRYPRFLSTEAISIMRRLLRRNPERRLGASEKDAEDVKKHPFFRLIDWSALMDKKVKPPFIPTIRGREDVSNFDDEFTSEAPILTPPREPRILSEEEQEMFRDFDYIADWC
Another experiment deals with Insulin receptor (Homo sapiens, UniProt P06213).
Experiment [18] addresses RAC-gamma serine/threonine-protein kinase (Homo sapiens, UniProt Q9Y243).
In experiment [19] the target is Proto-oncogene tyrosine-protein kinase ROS (Homo sapiens, UniProt P08922).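 Further: ROS1 tested as one member of a kinome-wide kinase panel.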
The target in experiment [20] is Serine/threonine-protein kinase MRCK alpha (Homo sapiens, UniProt Q5VT25).
Sequence of Serine/threonine-protein kinase MRCK alpha (Q5VT25 whole entry): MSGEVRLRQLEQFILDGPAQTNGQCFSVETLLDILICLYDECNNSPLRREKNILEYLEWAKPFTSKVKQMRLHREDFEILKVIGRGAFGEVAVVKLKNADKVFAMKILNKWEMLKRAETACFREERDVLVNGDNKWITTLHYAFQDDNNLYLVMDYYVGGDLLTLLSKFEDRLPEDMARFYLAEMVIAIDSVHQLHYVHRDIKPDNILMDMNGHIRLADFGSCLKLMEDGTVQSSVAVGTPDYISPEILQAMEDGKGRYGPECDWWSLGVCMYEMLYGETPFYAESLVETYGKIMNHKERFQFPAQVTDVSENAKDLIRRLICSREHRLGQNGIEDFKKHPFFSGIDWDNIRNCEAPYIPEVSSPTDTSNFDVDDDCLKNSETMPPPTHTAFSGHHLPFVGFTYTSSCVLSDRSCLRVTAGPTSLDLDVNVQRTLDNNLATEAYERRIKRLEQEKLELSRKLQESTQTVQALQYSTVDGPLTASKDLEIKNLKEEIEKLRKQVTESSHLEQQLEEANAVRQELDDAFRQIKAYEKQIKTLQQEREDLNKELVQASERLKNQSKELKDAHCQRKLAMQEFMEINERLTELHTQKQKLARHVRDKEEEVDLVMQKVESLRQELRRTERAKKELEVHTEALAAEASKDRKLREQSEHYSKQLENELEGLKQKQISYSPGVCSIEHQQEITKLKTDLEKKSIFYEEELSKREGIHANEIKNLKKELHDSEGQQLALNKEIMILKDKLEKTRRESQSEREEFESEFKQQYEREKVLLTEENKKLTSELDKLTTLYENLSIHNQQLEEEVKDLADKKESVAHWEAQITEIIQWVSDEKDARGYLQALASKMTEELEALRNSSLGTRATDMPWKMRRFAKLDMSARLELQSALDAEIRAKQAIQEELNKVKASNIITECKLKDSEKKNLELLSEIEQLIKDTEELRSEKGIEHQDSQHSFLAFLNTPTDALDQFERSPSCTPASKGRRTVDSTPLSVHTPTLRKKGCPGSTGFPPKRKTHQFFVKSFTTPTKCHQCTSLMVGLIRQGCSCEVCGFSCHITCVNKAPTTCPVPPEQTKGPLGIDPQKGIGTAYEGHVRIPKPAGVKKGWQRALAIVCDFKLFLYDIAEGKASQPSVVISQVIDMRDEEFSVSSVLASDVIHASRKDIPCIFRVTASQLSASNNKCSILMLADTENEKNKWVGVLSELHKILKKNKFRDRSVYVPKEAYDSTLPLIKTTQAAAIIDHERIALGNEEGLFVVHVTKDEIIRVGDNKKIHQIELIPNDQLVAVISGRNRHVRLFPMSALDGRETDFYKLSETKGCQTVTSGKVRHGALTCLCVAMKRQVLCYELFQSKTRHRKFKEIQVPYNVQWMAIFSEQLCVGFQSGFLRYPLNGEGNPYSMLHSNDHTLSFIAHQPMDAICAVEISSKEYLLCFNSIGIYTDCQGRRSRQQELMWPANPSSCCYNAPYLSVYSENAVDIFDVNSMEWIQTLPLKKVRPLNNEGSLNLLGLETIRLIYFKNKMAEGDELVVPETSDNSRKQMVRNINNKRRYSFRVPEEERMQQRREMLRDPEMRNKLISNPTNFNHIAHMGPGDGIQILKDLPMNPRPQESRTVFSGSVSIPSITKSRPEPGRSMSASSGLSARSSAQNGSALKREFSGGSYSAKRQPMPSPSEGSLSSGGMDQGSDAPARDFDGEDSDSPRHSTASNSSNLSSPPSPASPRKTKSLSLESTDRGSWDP
In experiment [21] the target is Mitogen-activated protein kinase 12 (Homo sapiens, UniProt P53778).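 Further: measured as one member of a kinome-wide kinase profiling panel.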
Sequence of Mitogen-activated protein kinase 12 (P53778 whole entry): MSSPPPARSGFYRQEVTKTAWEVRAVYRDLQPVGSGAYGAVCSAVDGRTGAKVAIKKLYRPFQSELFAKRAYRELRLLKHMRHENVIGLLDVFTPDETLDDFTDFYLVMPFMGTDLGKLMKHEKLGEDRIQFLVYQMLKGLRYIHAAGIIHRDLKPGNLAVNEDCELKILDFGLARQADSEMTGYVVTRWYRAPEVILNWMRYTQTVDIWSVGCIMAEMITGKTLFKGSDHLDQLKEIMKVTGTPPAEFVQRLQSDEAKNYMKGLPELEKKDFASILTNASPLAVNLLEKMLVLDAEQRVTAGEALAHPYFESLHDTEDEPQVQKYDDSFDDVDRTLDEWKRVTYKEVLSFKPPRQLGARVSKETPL
Experiment [22] has as its target cAMP-dependent protein kinase catalytic subunit PRKX (Homo sapiens, UniProt P51817).
The target of experiment [23] is G protein-coupled receptor kinase 5 (Homo sapiens, UniProt P34947). Put plainly: Navigating the Kinome. Panel member name: GPRK5.
The next experiment addresses Activin receptor type-1 (Homo sapiens, UniProt Q04771). Put plainly: Navigating the Kinome. Panel member name: ACVR1.
Experiment [24] addresses Dual specificity tyrosine-phosphorylation-regulated kinase 1A (Homo sapiens, UniProt Q13627).
The target in experiment [25] is Mitogen-activated protein kinase 14 (Homo sapiens, UniProt Q16539).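 Further: part of a kinome-wide panel, MAPK14 entry.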
Sequence of Mitogen-activated protein kinase 14 (Q16539 whole entry): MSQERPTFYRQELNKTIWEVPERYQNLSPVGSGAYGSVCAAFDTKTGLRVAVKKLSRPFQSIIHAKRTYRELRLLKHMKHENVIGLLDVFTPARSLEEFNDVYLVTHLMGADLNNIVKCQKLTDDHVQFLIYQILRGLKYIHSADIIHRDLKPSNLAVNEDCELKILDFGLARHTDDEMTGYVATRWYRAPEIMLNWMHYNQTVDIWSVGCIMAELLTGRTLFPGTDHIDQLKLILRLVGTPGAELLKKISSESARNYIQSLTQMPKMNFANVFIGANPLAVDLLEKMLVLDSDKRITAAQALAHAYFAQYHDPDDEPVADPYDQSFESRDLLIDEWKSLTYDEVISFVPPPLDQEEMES
The target in experiment [26] is Dual specificity protein kinase CLK4 (Homo sapiens, UniProt Q9HAZ1).
For experiment [27], the target named is Dual specificity mitogen-activated protein kinase kinase 2 (Homo sapiens, UniProt P36507). The experiment in a line: Navigating the Kinome. Panel member name: MAP2K2.

The source made the active and inactive calls.
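Wherever IC50 is given: luminescence read-out of SENP8 inhibition, dose-response confirmation following an ultra-high-throughput screen.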

Sequence of Tyrosine-protein kinase Lyn (P07948 whole entry): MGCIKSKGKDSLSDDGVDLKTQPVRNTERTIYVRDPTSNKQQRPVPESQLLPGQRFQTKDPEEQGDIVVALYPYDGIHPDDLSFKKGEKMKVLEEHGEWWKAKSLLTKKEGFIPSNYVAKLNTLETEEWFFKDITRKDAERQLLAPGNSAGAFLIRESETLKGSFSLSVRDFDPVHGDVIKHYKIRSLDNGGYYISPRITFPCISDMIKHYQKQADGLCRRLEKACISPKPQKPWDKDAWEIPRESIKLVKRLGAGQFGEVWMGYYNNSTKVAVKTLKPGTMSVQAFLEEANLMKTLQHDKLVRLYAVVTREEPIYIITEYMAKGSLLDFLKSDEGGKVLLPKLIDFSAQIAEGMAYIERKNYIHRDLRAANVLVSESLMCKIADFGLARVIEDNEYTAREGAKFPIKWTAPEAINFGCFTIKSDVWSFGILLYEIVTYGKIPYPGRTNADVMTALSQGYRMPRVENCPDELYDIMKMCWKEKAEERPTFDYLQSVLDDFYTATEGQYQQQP
Sequence of cAMP-dependent protein kinase catalytic subunit PRKX (P51817 whole entry): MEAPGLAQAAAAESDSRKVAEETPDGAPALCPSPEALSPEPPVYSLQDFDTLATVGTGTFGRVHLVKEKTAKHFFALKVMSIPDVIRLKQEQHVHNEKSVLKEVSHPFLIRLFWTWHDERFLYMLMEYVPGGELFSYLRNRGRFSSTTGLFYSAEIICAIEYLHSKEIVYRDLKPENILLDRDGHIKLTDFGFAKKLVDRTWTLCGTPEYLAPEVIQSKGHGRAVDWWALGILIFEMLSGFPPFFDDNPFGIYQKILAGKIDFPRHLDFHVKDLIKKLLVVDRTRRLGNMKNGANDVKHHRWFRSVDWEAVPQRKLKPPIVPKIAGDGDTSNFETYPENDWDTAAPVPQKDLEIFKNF

Broadly, the IC50 is the concentration at which inhibition is half-maximal. With `COc1ccc(-n2c(NC(=O)c3ccco3)c(C#N)c3nc4ccccc4nc32)cc1`, in [1], the 50% inhibitory concentration (IC50) was 7570 nM (active).
As usually defined, the Ki is a dissociation constant, usually derived from enzyme kinetics or from competition with a known ligand. On to `Cc1n[nH]c2ccc(-c3cncc(OCC(N)Cc4ccc(Cl)c(Cl)c4)c3)cc12` (stereo not given), for which the inhibitory constant (Ki) at Misshapen-like kinase 1 was 20 nM (active); in experiment [2], 316 nM (active); in experiment [3], 2510 nM (active); in [4], > 1580 nM (inactive); in experiment [5], 1260 nM (active); in experiment [6] it was > 1580 nM (inactive). For the same compound, the Ki was 2000 nM (active) in experiment [7]; 15.8 nM (active) in [8]; 316 nM (active) in [9]; > 2000 nM (inactive) in experiment [10]; > 1580 nM (inactive) in experiment [11]; 794 nM (active) in experiment [12]. Besides, the Ki in experiment [13] is > 1580 nM (inactive); in experiment [14], > 1580 nM (inactive); in experiment [15], 25.1 nM (active); in experiment [16] it was 501 nM (active); in [17], 20 nM (active); at Insulin receptor, 2510 nM (active). For the same compound, the inhibition constant Ki was 3.98 nM (active) in [18], 631 nM (active) in experiment [19], 7.94 nM (active) in experiment [20] and 398 nM (active) in experiment [21].
With `[2H]C([2H])([2H])Oc1cccc(C(C)NC(=O)c2sc(-c3ccncc3)nc2C)c1` (stereo not given), the Ki in [22] was > 3160 nM (inactive); in experiment [23] it was 3160 nM (active); on Activin receptor type-1, > 3980 nM (inactive); in experiment [24] it was > 2000 nM (inactive); in experiment [25], > 3980 nM (inactive); in experiment [26], > 2510 nM (inactive). Further, in experiment [27], the Ki was > 3980 nM (inactive).
